One may read the Papp A→B as how fast a substance crosses the layer from the apical side. Read a low Papp A→B as slow passage. Broadly, the Papp B→A is how fast a substance crosses the layer from the basolateral side. As usually defined, the IC50 is the point on the concentration scale where inhibition reaches its midpoint. What is called solubility is the concentration that dissolves in the medium under given conditions. High values mean a readily soluble substance, low ones a poorly soluble substance.

Converted amounts (≈) assume the structure as drawn.

The results in this text go back to patent US20190315711A1 (eXIthera Pharmaceuticals, Inc., priority 2016, published 2019).

Series [1] in a line: Caco-2 cell permeability assay (A-B and B-A). It counts as in vitro ADME. The following applies: human; for Papp A→B at 60 min, 10 μM: A-B direction; for Papp B→A at 40 min, 10 μM: B-A direction. The protocol: The following procedure was used to determine the ability of a test compound to cross Caco-2 cells (human intestinal epithelial cells derived from a colorectal adenocarcinoma). The cells were seeded at 1×10^5 cells/cm^2 in 96-well Multiscreen™ plates (Millipore). Permeability assays were performed with the cells at days 21-25 post-seeding. Cells are typically used for 15 consecutive passages in culture.
This assay can be performed in either the apical to basolateral (A−B) or basolateral to apical (B−A) direction. The test compound was prepared at 10 μM in HBSS-MES (pH 6.5) or HBSS-HEPES (pH 7.4) with a final DMSO concentration of 1%. The working solution was then centrifuged and the supernatant added to the donor side. The assay plate was incubated at 37° C. with gentle shaking for 60 min or 40 min for the A−B or B−A assay, respectively. Samples were aliquoted from the donor side at time zero and the end point, and from the receiver side at the end point.
Reference compounds, propranolol (highly permeable), labetalol (moderately permeable), ranitidine (poorly permeable), and colchicine (P-glycoprotein substrate) were included in each assay.
Samples are analyzed by HPLC-MS/MS using selected reaction monitoring. The HPLC system consists of a binary LC pump with autosampler, a C-18 column, and a gradient.
The apparent permeability coefficient (Papp) of the test compound (Equation 2) and its recovery (Equation 3) are calculated as follows: […]
wherein A is the surface area of the cell monolayer (0.11 cm^2), C is concentration of the test compound expressed as peak area, D denotes donor, and R is receiver. “0”, “mid,” and “end” denote time at zero, mid-point, and end of the incubation, respectively. At is the incubation time. V is the volume of the donor or receiver.
This is most likely due to non-specific binding or degradation.
(Caco-2 cells form a polarised layer with tight junctions and transporters.)

For another series, the target named is human Factor XIa (Homo sapiens, UniProt P03951). Kind of series: Factor XIa enzyme inhibition assay (dose response, fluorogenic AMC substrate). In kind it is biochemical. Also noted: Enzyme: Factor XIa. The following applies: purified enzyme; substrate 50 μM, enzyme 0.25 nM; read-out: hFXIa IC50. In outline:
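Fluorogenic assay in 20 mM Hepes pH 7.4, 150 mM NaCl, 0.02% Tween 20 with 0.25 nM enzyme and 50 μM Glp-Pro-Arg-AMC (final). Fluorescence read every minute for 30 min at 30 °C after serial two-fold compound dilution; IC50 from four-parameter Hill fit of dose-response curves.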

A short description of series [2]: Plasma protein binding by equilibrium dialysis. It counts as in vitro ADME. The following applies: both sexes, pooled plasma, pH 7.4, human plasma protein binding, read-out: PPB. The protocol:
The following procedure was used to determine the plasma protein binding of a test compound in pooled plasma from human (mixed gender) via equilibrium dialysis in a 96-well plate format. The dialysate compartment was loaded with phosphate-buffered saline (pH 7.4) and the sample side was loaded with plasma spiked with the test compound at a concentration of 10 μM. After loading, samples were covered and incubated for 4 hours at 37° C. After incubation, each compartment was sampled, diluted with acetonitrile/buffer and centrifuged. The supernatants were analyzed by HPLC-MS/MS. The analyte peak areas obtained from HPLC-MS/MS analysis of each sample were used to calculate protein binding according to the following equation (Equation 4):
where: AREAp=Peak area of analyte in protein matrix; AREAb=Peak area of analyte in buffer. The amount measured in the plasma compartment included both free and bound drug, while that on the buffer side represented free drug only; the differences were used to calculate the percentage plasma protein bound. Three reference compounds were tested in each assay: acebutolol, quinidine and warfarin.
Background: In equilibrium dialysis free small molecules cross a membrane that holds back macromolecules.

Series [3] can be described thus: Aqueous solubility in PBS pH 7.4. It counts as physicochemical. The following applies: phosphate buffered saline, aqueous buffer, kinetic from dmso stock, PBS pH 7.4, room temperature. How it is done: The following procedure was used to determine the aqueous solubility of a test compound in phosphate buffered saline (PBS—NaCl 137 mM, KCl 2.7 mM, Na2HPO4 8.1 mM, KH2PO4 1.5 mM, pH 7.4) in 96-well plate format by HPLC-UV/VIS analysis. The test compound was prepared at 200 μM in PBS from a 10 mM DMSO stock solution. The final DMSO concentration was 2%. The PBS buffer samples were mixed thoroughly followed by incubation at room temperature for 24 h. At the end of the incubation, the PBS buffer samples were centrifuged and supernatants analyzed by HPLC. The aqueous solubility (μM) of the test compound in PBS was determined by comparing the peak area of the principal peak in the calibration standard (200 μM) with the peak area of the corresponding peak in each of the PBS samples. The range of the assay was approximately 0.5 μM to 200 μM. The reference compounds used in each assay were metoprolol, rifampicin, ketoconazole, phenytoin, haloperidol, simvastatin, diethylstilbestrol, and tamoxifen ranking from fully soluble (200 μM) to poorly soluble (<1 μM).

A further series has as its target T1, Trypsin (Bos taurus, UniProt P00760).
T1 construct: gene PRSS1
T1 sequence (P00760 24-246): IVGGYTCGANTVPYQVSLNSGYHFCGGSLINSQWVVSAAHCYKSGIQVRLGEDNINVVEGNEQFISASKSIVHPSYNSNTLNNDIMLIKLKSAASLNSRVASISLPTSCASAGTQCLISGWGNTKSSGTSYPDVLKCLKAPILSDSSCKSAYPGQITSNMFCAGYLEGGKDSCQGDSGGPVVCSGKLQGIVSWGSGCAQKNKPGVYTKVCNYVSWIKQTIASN
Kind of series: Dose response assay for protease inhibitors: trypsin. It counts as biochemical. The following applies: ratio versus Factor XIa. How it is done:
(§1) • Assay buffer: 20 mM Hepes, pH 7.4; 150 mM NaCl; 0.02% Tween 20 • Compounds: 10 mM stocks in DMSO • Substrate: 20 mM Glp-Pro-Arg-AMC, 25 mg/2.3 mL H2O (store at +4° C.) [Factor XIa, thrombin, and trypsin] • 20 mM Pro-Phe-Arg-AMC (Bachem I-1295), 25 mg/2.2 mL H2O or Boc-Leu-Gly-Arg-AMC (Bachem I-1105), 25 mg/2.07 mL H2O (store at +4° C.) [Factor Xa] • Enzyme: Factor XIa; 0.25 M in 50% glycerol (20 μg/mL) • Trypsin; 0.2 μM in 50% glycerol (4.8 μg/mL) • Thrombin; 0.2 μM in 50% glycerol (7.34 μg/mL) • Factor Xa; 0.2 μM in 50% glycerol (9.2 μg/mL)
(§2) • 1. Dilute the substrate to 100 μM in assay buffer (30 μL/6 mL). The enzyme is diluted to 0.5 nM just prior to use (12 L/6 mL for Factor XIa; 15 μL/6 mL for all of the rest.) • 2. Pipette 50 μL of substrate into each well of the 96 well (12×8) microtiter plate. (Column 1 is used as the 100% activity control and receives no compound, and Column 12 is the blank and receives no enzyme.) Add an additional 46 μL to column 2. • 3. Pipette 4 μL of each compound into the appropriate well in column 2 of the plate (unknowns assayed in triplicate, standard assayed in duplicate). The final compound concentration will be 1/50th of the stock. • 4. Serially two-fold dilute the compound by mixing the sample in column 2, removing 50 μL to the next well (column 3), mix and remove to column 4, etc. until column 11. After mixing column 11, remove 50 μL and discard. • 5. Pipette 50 μL of buffer into column 12. Initiate the reaction by adding 50 μL of enzyme solution to each well of columns 1-11 as rapidly as possible. • 6. Read the plate in a spectrophotometer (SpectraMax) at 30° C., wherein each well is measured every 60 s for 30 min. For Factor Xa assays, each well is measured every 1 min for a total of 60 min. • 7. For Factor XIa assays, the compounds are assayed, in duplicate, at 3 different starting concentrations, 20, 2, and 0.2 μM; 1:10, 1:100, and 1:1000 dilution of 10 mM stock or at 2, 0.2, and 0.02 μM; 1:100, 1:1000, and 1:10,000 dilution of 10 mM stock. Data for each concentration are combined for graphing and data fitting. • 8. Data can be used both for estimation of IC50 and for estimation of Kon.

The target of a further series is T2, Factor Xa (Homo sapiens, UniProt P00742).
T2 construct: Factor Xa; 0.2 μM in 50% glycerol (9.2 μg/mL)
T2 sequence (P00742 235-488 limits assumed): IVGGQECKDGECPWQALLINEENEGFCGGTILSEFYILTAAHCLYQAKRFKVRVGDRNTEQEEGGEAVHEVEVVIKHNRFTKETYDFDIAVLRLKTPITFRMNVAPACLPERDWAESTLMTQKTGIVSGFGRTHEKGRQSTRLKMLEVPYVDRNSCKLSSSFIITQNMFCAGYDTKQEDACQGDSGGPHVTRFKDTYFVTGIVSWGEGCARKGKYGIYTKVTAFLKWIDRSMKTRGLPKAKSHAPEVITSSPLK
T2 sequence (P00742 41-179 partner limits assumed): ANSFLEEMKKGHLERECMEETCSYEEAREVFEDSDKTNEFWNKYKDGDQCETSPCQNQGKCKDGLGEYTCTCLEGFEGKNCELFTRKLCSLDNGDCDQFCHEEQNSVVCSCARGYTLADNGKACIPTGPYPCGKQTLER
Briefly: Dose response assay for protease inhibitors: Factor Xa. In kind it is biochemical. The following applies: ratio versus Factor XIa. How it is done:
as §1, §2

The target in a further series is T3, Thrombin (Homo sapiens, UniProt P00734).
T3 construct: Thrombin; 0.2 μM in 50% glycerol (7.34 μg/mL)
Briefly: Dose response assay for protease inhibitors: thrombin. To be noted: ratio versus Factor XIa. It counts as biochemical. The protocol: as §1, §2

Chain of human Factor XIa (P03951 388-625 limits assumed): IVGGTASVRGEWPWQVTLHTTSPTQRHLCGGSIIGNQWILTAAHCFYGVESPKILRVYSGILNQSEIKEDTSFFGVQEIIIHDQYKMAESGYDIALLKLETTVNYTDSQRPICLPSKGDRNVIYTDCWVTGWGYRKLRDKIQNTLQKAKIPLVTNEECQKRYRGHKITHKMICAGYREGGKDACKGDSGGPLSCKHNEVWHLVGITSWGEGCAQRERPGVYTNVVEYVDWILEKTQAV
Chain of human Factor XIa (P03951 19-387 partner limits assumed): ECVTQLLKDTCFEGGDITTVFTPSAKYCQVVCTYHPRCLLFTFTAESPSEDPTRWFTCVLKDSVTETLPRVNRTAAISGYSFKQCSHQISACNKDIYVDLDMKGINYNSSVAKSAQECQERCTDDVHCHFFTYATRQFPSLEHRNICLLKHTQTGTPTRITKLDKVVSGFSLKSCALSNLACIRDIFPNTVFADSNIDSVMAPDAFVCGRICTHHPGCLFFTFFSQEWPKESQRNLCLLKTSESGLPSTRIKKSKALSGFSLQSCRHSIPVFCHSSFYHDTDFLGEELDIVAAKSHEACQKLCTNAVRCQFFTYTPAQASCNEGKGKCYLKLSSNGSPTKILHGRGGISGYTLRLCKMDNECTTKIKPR

With `CN(C(=O)[C@@H]1[C@@H](Cc2ccnc(N)c2)C(=O)N1C(=O)N[C@@H](C1CCCCC1)C(F)(F)F)c1cc(Cl)cc(Cl)c1` [Compound 23], in series [1], the Papp A→B at 60 min, 10 μM was at most 10 ×10⁻⁶ cm/s and the Papp B→A at 40 min, 10 μM is at most 10 ×10⁻⁶ cm/s. Also, the IC50 on human Factor XIa was 0.01 to 0.1 µM. Besides, the fraction unbound at 4 h, 10 μM in series [2] was below 0.05. The same molecule had a solubility at 24 h in series [3] of at most 10 µM.

On to `CC[C@@H](NC(=O)N1C(=O)[C@H](Cc2ccnc(N)c2)[C@H]1C(=O)N(C)c1cccc(OC)c1)C1CCCCC1` [Compound 28], for which, in series [1], the Papp A→B at 60 min, 10 μM lay within 11 to 30 ×10⁻⁶ cm/s and the Papp B→A at 40 min, 10 μM was at most 10 ×10⁻⁶ cm/s. For the same molecule, the IC50 at human Factor XIa was below 0.01 µM. Moreover, at Trypsin, the “Ratio: Trypsin/FXIa” value is “G (“G” indicates 1-100)”. Also, at Factor Xa, the “FXa/FXIa (selectivity ratio)” value is “H (“H” indicates 101-1000)”. The “Ratio: Thrombin/FXIa” value at Thrombin is on record as “G (“G” indicates 1-100)”.

In series [1], `CC[C@@H](NC(=O)N1C(=O)[C@H](Cc2ccnc(N)c2)[C@H]1C(=O)N(CC)c1cccc(Cl)c1)C1CCCCC1` [Compound 32] gave a Papp A→B at 60 min, 10 μM of at most 10 ×10⁻⁶ cm/s and a Papp B→A at 40 min, 10 μM of at most 10 ×10⁻⁶ cm/s. The IC50 on human Factor XIa was below 0.01 µM. Also, the “Ratio: Trypsin/FXIa” value on Trypsin is “G (“G” indicates 1-100)”. For the same molecule, the “FXa/FXIa (selectivity ratio)” value on Factor Xa is reported as “H (“H” indicates 101-1000)”. The “Ratio: Thrombin/FXIa” value at Thrombin is recorded as “G (“G” indicates 1-100)”.

For the molecule `CC[C@@H](NC(=O)N1C(=O)[C@H](Cc2ccnc(N)c2)[C@H]1C(=O)N(C)c1ncccn1)C1CCCCC1` [Compound 37], in series [1], the Papp A→B at 60 min, 10 μM lay in the range of 11 to 30 ×10⁻⁶ cm/s and the Papp B→A at 40 min, 10 μM is 11 to 30 ×10⁻⁶ cm/s. The IC50 on human Factor XIa is below 0.01 µM. For the same molecule, the “Ratio: Trypsin/FXIa” value on Trypsin is listed as “G (“G” indicates 1-100)”. Moreover, on Factor Xa, the “FXa/FXIa (selectivity ratio)” value was “I (“I” indicates >500)”. In addition, the “Ratio: Thrombin/FXIa” value at Thrombin is listed as “I (“I” indicates >500)”.

For the molecule `CC[C@H](c1cccc(Cl)c1)N(C)C(=O)N1C(=O)[C@H](Cc2ccnc(N)c2)[C@H]1C(=O)N(C)c1ccncc1` [Compound 113], in series [1], the Papp A→B at 60 min, 10 μM was at most 10 ×10⁻⁶ cm/s and the Papp B→A at 40 min, 10 μM fell in the range of 11 to 30 ×10⁻⁶ cm/s. Besides, the concentration for half-maximal inhibition (IC50) at human Factor XIa is below 0.01 µM. Also, the “Ratio: Trypsin/FXIa” value at Trypsin is “G (“G” indicates 1-100)”. Besides, the “FXa/FXIa (selectivity ratio)” value at Factor Xa was “I (“I” indicates >500)”. Further, the “Ratio: Thrombin/FXIa” value on Thrombin is recorded as “H (“H” indicates 101-1000)”.

Take `CC[C@@H](NC(=O)N1C(=O)[C@H](Cc2ccnc(N)c2)[C@H]1C(=O)N(C)c1ccccc1)c1cccc(Cl)c1` [Compound 115]: in series [1], the Papp A→B at 60 min, 10 μM was 11 to 30 ×10⁻⁶ cm/s and the Papp B→A at 40 min, 10 μM was at most 10 ×10⁻⁶ cm/s. Moreover, at human Factor XIa, the IC50 was below 0.01 µM. In addition, the “Ratio: Trypsin/FXIa” value at Trypsin is on record as “G (“G” indicates 1-100)”. In addition, the “FXa/FXIa (selectivity ratio)” value at Factor Xa is “H (“H” indicates 101-1000)”. Further, on Thrombin, the “Ratio: Thrombin/FXIa” value was “H (“H” indicates 101-1000)”.

As to `CN(C(=O)[C@@H]1[C@@H](Cc2ccnc(N)c2)C(=O)N1C(=O)N[C@@H](C1CCCCC1)C(F)(F)F)c1cccc(Cl)c1` [Example 11], in series [1], the Papp A→B at 60 min, 10 μM is at most 10 ×10⁻⁶ cm/s and the Papp B→A at 40 min, 10 μM was at most 10 ×10⁻⁶ cm/s. Further, the fraction unbound at 4 h, 10 μM in series [2] is below 0.05. The molecule further showed a solubility at 24 h in series [3] of 10 to 100 µM (≈ 5.52 to 55.2 µg/mL).
